From patent US12286453B2, “Methods of sequencing using nucleotides with 3′ acetal blocking group” (ILLUMINA CAMBRIDGE LIMITED, priority 2020, dated 2025)

Experiment: Solution cleavage efficiency of palladium reagent formulations (HPLC kinetics)
Type: physicochemical
Conditions: 1 mM Pd species, 0.1 mM substrate, RT; 3 or 3.5 equivalents of THP vs 10 equivalents for [(Allyl)PdCl]2
Description: The cleavage efficiency was determined by measuring the relative rate of cleavage of a 3′-AOM-nucleotide substrate. Briefly, to a 0.1 mM solution of 3′-AOM-nucleotide substrate in 100 mM buffer was added a stock solution of a palladium reagent to a final concentration of 1 mM in Pd species. The solution was incubated at RT and the reaction kinetic was monitored by taking aliquots from the reaction at set time points, quenching them with a 1:1 solution of EDTA/H2O2 (0.1:0.1 M) and analyzing them by HPLC for the formation of 3′-OH nucleotide and the disappearance of the 3′-AOM nucleotide substrate.

## [Cl-].[Cl-].[Cl][Pd][Cl].[Na+].[Na+] [Na2PdCl4]
  cleavage efficiency (relative rate of cleavage): comparable to that of [(Allyl)PdCl]2
